In US10842878B2, “Degradation of Bruton's tyrosine kinase (BTK) by conjugation of BTK inhibitors with E3 ligase ligand and methods of use” (Dana-Farber Cancer Institute, Inc., priority 2016, dated 2020):

Molecular target: T1, BTK (Homo sapiens, UniProt Q06187)
T1 construct: protein lysate harvest and Western blotting analysis of BTK, Aurora A, and α-tubulin levels; endogenous in cells; host or cells: MOLM14 cells
Assay: Cell assay and Western blotting analysis of BTK levels in MOLM14 cells
Assay type: cell-based
Conditions: MOLM14 cells treated with 40 nM, 200 nM, 1 μM for 4 or 12 hours (FIG. 1: 4 hours); DMSO control; Aurora A and α-tubulin also blotted
Experimental: MOLM14 cells were treated with DMSO or with 40 nM, 200 nM, 1 μM of a BTK bifunctional inhibitor compound of the disclosure for 4 or 12 hours, followed by protein lysate harvest and Western blotting analysis of BTK, Aurora A, and α-tubulin levels.
Cells are lysed using RIPA buffer supplemented with protease inhibitor cocktail (Roche) and phosSTOP phosphatase inhibitor cocktail (Roche) on ice for 15 minutes. The lysates are spun at 20,000×g for 15 minutes on 4° C. and protein concentration is determined using BCA assay (Pierce). The following primary antibodies are used in this study: BTK, GADPH, tubulin and Aurora A kinase (all from Cell Signaling Technology). Blots are imaged using fluorescence-labeled secondary antibodies (LI-COR) on the OdysseyCLxImager (LI-COR). Quantification of band intensities is performed using OdysseyCLx software (LI-COR).

T1 sequence (Q06187 whole entry): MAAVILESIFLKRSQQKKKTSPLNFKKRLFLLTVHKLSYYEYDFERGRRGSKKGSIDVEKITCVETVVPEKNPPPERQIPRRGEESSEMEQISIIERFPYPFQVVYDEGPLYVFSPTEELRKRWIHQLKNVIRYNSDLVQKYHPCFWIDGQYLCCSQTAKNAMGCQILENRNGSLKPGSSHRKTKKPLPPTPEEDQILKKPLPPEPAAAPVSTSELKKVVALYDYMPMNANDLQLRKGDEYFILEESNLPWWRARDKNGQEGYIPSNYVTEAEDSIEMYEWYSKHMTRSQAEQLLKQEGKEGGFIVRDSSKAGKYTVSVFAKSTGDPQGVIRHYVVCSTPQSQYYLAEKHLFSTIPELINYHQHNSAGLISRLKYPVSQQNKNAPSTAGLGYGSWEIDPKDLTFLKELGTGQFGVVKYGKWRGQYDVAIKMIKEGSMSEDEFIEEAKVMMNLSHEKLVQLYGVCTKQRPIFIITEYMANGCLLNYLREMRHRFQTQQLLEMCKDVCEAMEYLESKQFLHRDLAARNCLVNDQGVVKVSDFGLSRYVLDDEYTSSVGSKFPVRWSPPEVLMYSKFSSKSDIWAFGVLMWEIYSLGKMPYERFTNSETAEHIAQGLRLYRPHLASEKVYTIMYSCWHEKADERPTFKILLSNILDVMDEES

BTK degradation (Western blotting analysis of BTK levels): showed BTK degradation
Compound: Cc1c(NC(=O)c2ccc(C(C)(C)C)cc2)cccc1-c1cn(C)c(=O)c(Nc2ccc(C(=O)N3CCN(CCOCCOCCNC(=O)CNc4cccc5c4C(=O)N(C4CCC(=O)NC4=O)C5=O)CC3)cc2)n1 (stereo not shown) [Compound I-5, 4-(tert-butyl)-N-(3-(6-((4-(4-(2-(2-(2-(2-((2-(2,6-dioxopiperidin-3-yl)-1,3-dioxoisoindolin-4-yl)amino)acetamido)ethoxy)ethoxy)ethyl)piperazine-1-carbonyl)phenyl)amino)-4-methyl-5-oxo-4,5-dihydropyrazin-2-yl)-2-methylphenyl)benzamide]
